Patent publication US8802597B2, “Herbicidal pyrimidines” (E I du Pont de Nemours and Company, priority 2003, dated 2014)

Columns and labels:
Type in all cases: in vivo
kochia (Kochia scoparia) = test: Test D pre/postemergence; settings: scale 0 to 100 (100 = complete control)
How it was run: (§1)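 Visual injury score, 0–100 (0 = no effect, 100 = complete control), vs untreated controls after 15–25 d in controlled environment. Pre- and postemergence treatments run in parallel; postemergence at 1–4 leaf, 2–18 cm. Compounds in non-phytotoxic solvent with surfactant.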

[1] = system: wheat (Triticum aestivum); test: Test D pre/postemergence; settings: scale 0 to 100 (100 = complete control)
How it was run: as §1

[2] = system: wild buckwheat (Polygonum convolvulus); test: Test D pre/postemergence; settings: scale 0 to 100 (100 = complete control)
How it was run: as §1

[3] = system: common chickweed (Stellaria media); test: Test D pre/postemergence; settings: scale 0 to 100 (100 = complete control)
How it was run: as §1

[4] = system: wild mustard (Sinapis arvensis); test: Test D pre/postemergence; settings: scale 0 to 100 (100 = complete control)
How it was run: as §1

[5] = system: Russian thistle (Salsola kali); test: Test D pre/postemergence; settings: scale 0 to 100 (100 = complete control)
How it was run: as §1

[6] = system: pigweed (Amaranthus retroflexus); test: Test D pre/postemergence; settings: scale 0 to 100 (100 = complete control)
How it was run: as §1

[7] = system: catchweed bedstraw (galium; Galium aparine); test: Test D pre/postemergence; settings: scale 0 to 100 (100 = complete control)
How it was run: as §1

[8] = system: lambsquarters (Chenopodium album); test: Test D pre/postemergence; settings: scale 0 to 100 (100 = complete control)
How it was run: as §1

[9] = system: dallisgrass (Paspalum dilatatum); test: Test G pre/postemergence; settings: Preemergence
Text: (§2) Seeds or nutlets of plant species selected from bermudagrass (Cynodon dactylon), Surinam grass (Brachiaria decumbens), large crabgrass (Digitaria sanguinalis), green foxtail (Setaria viridis), goosegrass (Eleusine indica), johnsongrass (Sorghum halepense), kochia (Kochia scoparia), pitted morningglory (Ipomoea lacunosa), purple nutsedge (Cyperus rotundus), common ragweed (Ambrosia elatior), black mustard (Brassica nigra), guineagrass (Panicum maximum), dallisgrass (Paspalum dilatatum), barnyardgrass (Echinochloa crus-galli), southern sandbur (Cenchrus echinatus), common sowthistle (Sonchus oleraceous), prickly sida (Sida spinosa), Italian ryegrass (Lolium multiflorum), common purslane (Portulaca oleracea), broadleaf signalgrass (Brachiaria platyphylla), common groundsel (Senecio vulgaris), common chickweed (Stellaria media), tropical spiderwort (Commelina benghalensis), annual bluegrass (Poa annua), downy bromegrass (Bromus tectorum), itchgrass (Rottboellia cochinchinensis), quackgrass (Elytrigia repens), Canada horseweed (Conyza canadensis), field bindweed (Convolvulus arvensis), spanishneedles (Bidens bipinnata), common mallow (Malva sylvestris), and Russian thistle (Salsola kali) were planted and treated preemergence with test chemicals formulated in a non-phytotoxic solvent mixture which included a surfactant.
(§3) At the same time, plants selected from these weed species were treated with postemergence applications of some of the test chemicals formulated in the same manner. Plants ranged in height from 2 to 18 cm (1- to 4-leaf stage) for postemergence treatments. Treated plants and controls were maintained in a greenhouse for 12 to 21 days, after which time all species were compared to controls and visually evaluated.
(§4) Plant response ratings, summarized in Table G, are based on a scale of 0 to 100 where 0 is no effect and 100 is complete control. A dash (-) response means no test result.

[10] = system: tropical spiderwort (Commelina benghalensis); test: Test G pre/postemergence; settings: Preemergence
Text: as §2, §3, §4

[11] = system: black mustard (Brassica nigra); test: Test G pre/postemergence; settings: Preemergence
Text: as §2, §3, §4

[12] = system: goosegrass (Eleusine indica); test: Test G pre/postemergence; settings: Preemergence
Text: as §2, §3, §4

## CCOC(=O)c1nc(C2CC2)nc(N)c1Cl [Compound 4, ethyl 6-amino-5-chloro-2-cyclopropyl-4-pyrimidinecarboxylate]
Kochia (Kochia scoparia); Postemergence, 16 g ai/ha
  Plant response rating, Kochia: 85
Kochia (Kochia scoparia); Postemergence, 31 g ai/ha
  Plant response rating, Kochia: 100
Kochia (Kochia scoparia); Postemergence, 62 g ai/ha
  Plant response rating, Kochia: 100
Kochia (Kochia scoparia); Postemergence, 125 g ai/ha
  Plant response rating, Kochia: 100
Kochia (Kochia scoparia); Preemergence, 16 g ai/ha
  Plant response rating, Kochia: 85
Kochia (Kochia scoparia); Preemergence, 31 g ai/ha
  Plant response rating, Kochia: 100
Kochia (Kochia scoparia); Preemergence, 62 g ai/ha
  Plant response rating, Kochia: 100
Kochia (Kochia scoparia); Preemergence, 125 g ai/ha
  Plant response rating, Kochia: 100
[1]; Postemergence, 16 g ai/ha
  Plant response rating, Wheat: 80
[1]; Postemergence, 31 g ai/ha
  Plant response rating, Wheat: 85
[1]; Postemergence, 62 g ai/ha
  Plant response rating, Wheat: 100
[1]; Postemergence, 125 g ai/ha
  Plant response rating, Wheat: 100
[1]; Preemergence, 31 g ai/ha
  Plant response rating, Wheat: 70
[1]; Preemergence, 62 g ai/ha
  Plant response rating, Wheat: 80
[1]; Preemergence, 125 g ai/ha
  Plant response rating, Wheat: 80
[2]; Postemergence, 16 g ai/ha
  Plant response rating, Buckwheat, Wild: 80
[2]; Postemergence, 31 g ai/ha
  Plant response rating, Buckwheat, Wild: 85
[2]; Postemergence, 62 g ai/ha
  Plant response rating, Buckwheat, Wild: 100
[2]; Postemergence, 125 g ai/ha
  Plant response rating, Buckwheat, Wild: 100
[2]; Preemergence, 16 g ai/ha
  Plant response rating, Buckwheat, Wild: 60
[2]; Preemergence, 31 g ai/ha
  Plant response rating, Buckwheat, Wild: 80
[2]; Preemergence, 62 g ai/ha
  Plant response rating, Buckwheat, Wild: 100
[2]; Preemergence, 125 g ai/ha
  Plant response rating, Buckwheat, Wild: 100
[3]; Postemergence, 16 g ai/ha
  Plant response rating, Chickweed: 65
[3]; Postemergence, 31 g ai/ha
  Plant response rating, Chickweed: 100
[3]; Postemergence, 62 g ai/ha
  Plant response rating, Chickweed: 100
[3]; Postemergence, 125 g ai/ha
  Plant response rating, Chickweed: 100
[3]; Preemergence, 16 g ai/ha
  Plant response rating, Chickweed: 65
[3]; Preemergence, 31 g ai/ha
  Plant response rating, Chickweed: 70
[3]; Preemergence, 62 g ai/ha
  Plant response rating, Chickweed: 85
[3]; Preemergence, 125 g ai/ha
  Plant response rating, Chickweed: 100
[4]; Postemergence, 16 g ai/ha
  Plant response rating, Mustard, Wild: 65
[4]; Postemergence, 31 g ai/ha
  Plant response rating, Mustard, Wild: 65
[4]; Postemergence, 62 g ai/ha
  Plant response rating, Mustard, Wild: 75
[4]; Postemergence, 125 g ai/ha
  Plant response rating, Mustard, Wild: 90
[4]; Preemergence, 16 g ai/ha
  Plant response rating, Mustard, Wild: 65
[4]; Preemergence, 31 g ai/ha
  Plant response rating, Mustard, Wild: 85
[4]; Preemergence, 62 g ai/ha
  Plant response rating, Mustard, Wild: 85
[4]; Preemergence, 125 g ai/ha
  Plant response rating, Mustard, Wild: 85
[5]; Postemergence, 16 g ai/ha
  Plant response rating, Russian Thistle: 80
[5]; Postemergence, 31 g ai/ha
  Plant response rating, Russian Thistle: 90
[5]; Postemergence, 62 g ai/ha
  Plant response rating, Russian Thistle: 100
[5]; Postemergence, 125 g ai/ha
  Plant response rating, Russian Thistle: 100
[5]; Preemergence, 16 g ai/ha
  Plant response rating, Russian Thistle: 90
[5]; Preemergence, 31 g ai/ha
  Plant response rating, Russian Thistle: 100
[5]; Preemergence, 62 g ai/ha
  Plant response rating, Russian Thistle: 100
[5]; Preemergence, 125 g ai/ha
  Plant response rating, Russian Thistle: 100
[6]; Postemergence, 16 g ai/ha
  Plant response rating, Pigweed: 85
[6]; Postemergence, 31 g ai/ha
  Plant response rating, Pigweed: 100
[6]; Postemergence, 62 g ai/ha
  Plant response rating, Pigweed: 100
[6]; Postemergence, 125 g ai/ha
  Plant response rating, Pigweed: 100
[6]; Preemergence, 16 g ai/ha
  Plant response rating, Pigweed: 70
[6]; Preemergence, 31 g ai/ha
  Plant response rating, Pigweed: 90
[6]; Preemergence, 62 g ai/ha
  Plant response rating, Pigweed: 100
[6]; Preemergence, 125 g ai/ha
  Plant response rating, Pigweed: 100
[7]; Postemergence, 16 g ai/ha
  Plant response rating, Galium: 100
[7]; Postemergence, 31 g ai/ha
  Plant response rating, Galium: 100
[7]; Postemergence, 62 g ai/ha
  Plant response rating, Galium: 100
[7]; Postemergence, 125 g ai/ha
  Plant response rating, Galium: 100
[7]; Preemergence, 16 g ai/ha
  Plant response rating, Galium: 90
[7]; Preemergence, 31 g ai/ha
  Plant response rating, Galium: 100
[7]; Preemergence, 62 g ai/ha
  Plant response rating, Galium: 100
[7]; Preemergence, 125 g ai/ha
  Plant response rating, Galium: 100
[8]; Postemergence, 16 g ai/ha
  Plant response rating, Lambsquarters: 95
[8]; Postemergence, 31 g ai/ha
  Plant response rating, Lambsquarters: 100
[8]; Postemergence, 62 g ai/ha
  Plant response rating, Lambsquarters: 100
[8]; Postemergence, 125 g ai/ha
  Plant response rating, Lambsquarters: 100
[8]; Preemergence, 16 g ai/ha
  Plant response rating, Lambsquarters: 70
[8]; Preemergence, 31 g ai/ha
  Plant response rating, Lambsquarters: 80
[8]; Preemergence, 62 g ai/ha
  Plant response rating, Lambsquarters: 100
[8]; Preemergence, 125 g ai/ha
  Plant response rating, Lambsquarters: 100
[9]; 62 g ai/ha, scale 0-100
  Plant response rating, Dallisgrass: 0
[9]; 125 g ai/ha, scale 0-100
  Plant response rating, Dallisgrass: 50
[9]; 250 g ai/ha, scale 0-100
  Plant response rating, Dallisgrass: 95
[9]; 500 g ai/ha, scale 0 to 100
  Plant response rating, Dallisgrass: 100
[10]; 62 g ai/ha, scale 0-100
  Plant response rating, Spiderwort: 100
[10]; 125 g ai/ha, scale 0-100
  Plant response rating, Spiderwort: 100
[10]; 250 g ai/ha, scale 0-100
  Plant response rating, Spiderwort: 100
[10]; 500 g ai/ha, scale 0 to 100
  Plant response rating, Spiderwort: 100
[11]; 62 g ai/ha, scale 0-100
  Plant response rating, Black Mustard: 95
[11]; 125 g ai/ha, scale 0-100
  Plant response rating, Black Mustard: 95
[11]; 250 g ai/ha, scale 0-100
  Plant response rating, Black Mustard: 100
[11]; 500 g ai/ha, scale 0 to 100
  Plant response rating, Black Mustard: 100
[12]; 62 g ai/ha, scale 0-100
  Plant response rating, Goosegrass: 10
[12]; 125 g ai/ha, scale 0-100
  Plant response rating, Goosegrass: 60
[12]; 250 g ai/ha, scale 0-100
  Plant response rating, Goosegrass: 70
[12]; 500 g ai/ha, scale 0 to 100
  Plant response rating, Goosegrass: 90
